Data set [1] relates to ICR mice. Briefly: Hot-plate test. The data set is classed as in vivo. The settings on record: withdrawal latency relative to vehicle control, 150 mg/kg po, hot plate 55±1° C. On the procedure:
To examine the pain relief effect of the phenyl carbamate compounds, a hot-plate test was conducted in general pain animal model referring to Current Protocols in Neuroscience; Behavioral Neuroscience Unit 8.9.
ICR mice (male, 30-35 g; Orient Bio, Korea) were habituated before test in test room for 1 hour Animals were fasted 2 hr before administration of compounds. Each of Compound 1, 2, 3, 4, 5, 63, 65, and 67 was orally administered at the dose of 150 mg/kg, 10 ul/g, bw (n=7˜10/group). All compounds were dissolved in a vehicle of 30% (v/v) PEG 400 or 20% (v/v) Tween 80. The control group was treated the vehicle without compounds.
0.5 hr after the administration of compounds, the mice were put on a hot plate pre-heated to 55±1° C. (Hu, X. et al, 2008), and then, measured as the withdrawal latency (cut-off time: 30 sec) time until the point when each mouse was taking off a paw from the plate, shaking, licking a paw or hind leg, or jumping from the plate.

Data set [2] deals with ICR mice. Briefly: Writhing test (acetic acid). The data set is classed as in vivo. The settings on record: number of writhes relative to vehicle control, 20 mg/kg po, 0.6% acetic acid. On the procedure:
To examine the pain relief effect of the phenyl carbamate compounds, a writhing test was conducted in general pain animal model referring to Fischer, L. G. et al. (2008).
ICR mice (male, 24-28 g; Orient Bio, Korea) were habituated before test in test room for 1 hour Animals were fasted 2 hr, before administration of compounds. Each of Compound 1, 2, 3, 4, 5, 63, 65, and 67 was orally administered at the dose of 20 mg/kg, 10 ul/g, bw (n=3˜5/group). All compounds were dissolved in a vehicle of 30% (v/v) PEG 400 or 20% (v/v) Tween 80. The control group was treated the vehicle without compounds.
One hour after the administration of Compounds, 0.6% acetic acid at the dose of 10 ul/g, bw was injected into the mice. Animals were habituated in the cage for 5 min 5 min after habituation, the number of writhes (abdominal constriction) for 15 min was counted referring to Korzeniewska-Rybicka, I. et al. (1998) and compared with that of a control.
Background: Writhing tests count abdominal constrictions after an irritant is injected.

In the next data set the test system is mice. Briefly: Measurement of neurotoxicity (rotarod). The data set is classed as in vivo. The settings on record: protective index, ratio of TD50 to ED50 in MES. The procedure:
The measurement of neurotoxicity of the test compounds was conducted by the method of Dunham and Miya [Dunham, N. W. and Miya, T. S. 1957. A note on a simple apparatus for detecting neurological deficit in rats and mice. J. Am. Pharm. Assoc. (Baltimore) 46: 208-209]. In the method, motor abilities of the test animals can be determined by observing whether the test animals can walk without falling from a rotator, thereby determining the value of neurotoxicity of each compound. […] They were pre-trained on the rotarod (Rotarod; Columbus instrument, rota-max, USA) at 6 rpm for 5 min 24 hr prior to the test. The peak time was determined by administration test material's random dose for 0.5, 1, 2, 4 hour. […] The ratio of TD50 to ED50 (TD50/ED50) is called as a protective index, and useful as a parameter for comparison of pharmaceutical efficacy and neurotoxicity.

The test system of the next data set is SNL model in rats. In words: Antiallodynic activity on Chung model (SNL, spinal nerve ligation), von Frey. The data set is classed as in vivo, Sprague-Dawley rats. The settings on record: paw withdrawal threshold relative to sham, 50 mg/kg p.o. The procedure: Male Sprague-Dawley rats (200-220 g, Orient Bio, Korea) were habituated for 1 week before the experiment and allowed free access to food and water throughout the experimentation. Room temperature and humidity were maintained at 24±2° C. and 50±10%, respectively. Neuropathic surgery (SNL, Spinal nerve ligation) model was done as described in Kim and Chung (1992). Briefly, animal under gaseous anesthesia with isoflurane a 4:4 flow ratio of NO2. The left lumber spinal nerve L5 and L6 were isolated and tightly ligated with 4˜0 silk thread. The wound was treated with a gentamicin antibiotics solution (4 mg/kg, 4 ul/g, bw), and the wound muscle was closed with cat cut chrome 4/0 thread and skin was closed dafilon 4/0 tread. Sham controls were prepared in the same manner as the spinal nerves were exposed, but no ligated L5 and L6 nerves. But, vehicle controls were identical to SNL model, except for administration of vehicles.
Tactile sensitivity (Mechanical allodynia) was evaluated using von Frey monofilaments before and after treatment and animals were used withdrawal threshold value was less than 4 g. […] The tactile sensitivity for ipsilateral hind paw was measured using the up-and-down method (Dixon, 1980) with seven von Frey monofilaments (0.4, 1, 2, 4, 6, 8, and 15 g) to 3 trials. […] The 50% paw withdrawal threshold for each paw was calculated using the following formula: [Xth] log=[vFr] log+ky where [vFr] is the force of the last von Frey used, k=0.2249 which is the average interval (in log units) between the von Frey monofilaments, and y is a value that depends upon the pattern of withdrawal responses (Dixon, 1980).
All animals were fasted 18 h before the administration of the compounds. Antiallodynic effect of compounds of Examples 1, 63 and 65 were evaluated at the dose of 5, 10 and 30 mg/kg (n=5˜6), orally administrated in a volume of 5 ul/g, bw in a vehicle of 30% (v/v) PEG 400 (Examples 1 and 63) or 20% (v/v) Tween 80 (Example 65). […]

SMILES strings stand for the structures.

As to `C[C@H](OC(N)=O)[C@H](O)c1ccccc1Cl` [Example 5, 1-(2-chlorophenyl)-(R)-1-hydroxypropyl-(S)-2-carbamate], the “Hot-plate test (150 mg/kg, 0.5 h, po) % Control” value in the data set with ICR mice [1] was 145.5%. Further, the “Writhing test (20 mg/kg, 1 h, po) % Control” value with ICR mice [2] came out at 66.6%. In addition, the “PI(TD50/ED50 in MES)” value in the data set on mice came to 3.3.

As for `CC[C@H](OC(N)=O)[C@@H](O)c1ccccc1I` [Example 67, 1-(2-iodophenyl)-(S)-1-hydroxybutyl-(S)-2-carbamate], the “Hot-plate test (150 mg/kg, 0.5 h, po) % Control” value in the data set on ICR mice [1] was 131.4%. For the same molecule, the “Writhing test (20 mg/kg, 1 h, po) % Control” value in the data set on ICR mice [2] stood at 68.3%.

Turning to `C[C@@H](OC(N)=O)[C@@H](O)c1ccccc1Cl` [Example 4, 1-(2-chlorophenyl)-(S)-1-hydroxypropyl-(R)-2-carbamate], the “Hot-plate test (150 mg/kg, 0.5 h, po) % Control” value in the data set on ICR mice [1] turned out to be 108.2%. The “Writhing test (20 mg/kg, 1 h, po) % Control” value in the data set with ICR mice [2] was determined as 75.5%.

For `C[C@H](OC(N)=O)[C@@H](O)c1c(Cl)cccc1Cl` [Example 37, 1-(2,6-dichlorophenyl)-(S)-1-hydroxypropyl-(S)-2-carbamate], in the data set with mice, the “PI(TD50/ED50 in MES)” value was 5.1.

Take `C[C@H](OC(N)=O)[C@@H](O)c1ccccc1F` [Example 63, 1-(2-fluorophenyl)-(S)-1-hydroxypropyl-(S)-2-carbamate]: in the data set on ICR mice [1], the “Hot-plate test (150 mg/kg, 0.5 h, po) % Control” value is 183.1%. Besides, the “Writhing test (20 mg/kg, 1 h, po) % Control” value in the data set on ICR mice [2] was 63.9%. Further, the “SNL (50 mg/kg, 1 h, p.o.) % Control” value with SNL model in rats worked out at 55.4%.

`C[C@@H](OC(N)=O)[C@H](O)c1ccccc1Cl` [Example 2, 1-(2-chlorophenyl)-(R)-1-hydroxypropyl-(R)-2-carbamate]: the “Hot-plate test (150 mg/kg, 0.5 h, po) % Control” value in the data set on ICR mice [1] came to 129.8%. Besides, the “Writhing test (20 mg/kg, 1 h, po) % Control” value with ICR mice [2] was determined as 73.8%. Moreover, the “PI(TD50/ED50 in MES)” value in the data set with mice stood at 7.3.

As for `C[C@H](OC(N)=O)[C@@H](O)c1ccccc1I` [Example 65, 1-(2-iodophenyl)-(S)-1-hydroxypropyl-(S)-2-carbamate], the “Hot-plate test (150 mg/kg, 0.5 h, po) % Control” value in the data set on ICR mice [1] was 104.1%. In addition, the “Writhing test (20 mg/kg, 1 h, po) % Control” value in the data set with ICR mice [2] came out at 60.6%. Moreover, the “SNL (50 mg/kg, 1 h, p.o.) % Control” value with SNL model in rats came out at 76.8%.

`CC(OC(N)=O)C(O)c1ccccc1Cl` (racemic) [Example 3, 1-(2-chlorophenyl)-1-hydroxypropyl-2-carbamate]: the “Hot-plate test (150 mg/kg, 0.5 h, po) % Control” value in the data set on ICR mice [1] amounted to 120.5%. Besides, the “Writhing test (20 mg/kg, 1 h, po) % Control” value in the data set with ICR mice [2] is 84.8%. Further, the “PI(TD50/ED50 in MES)” value in the data set on mice stood at 12.0.
